# Legend:
# [1] = biological target: T1, SCD1 (Homo sapiens, UniProt O00767); test: Growth inhibition of humanized yeast strain expressing SCD1 as sole desaturase; format: cell-based; settings: growth inhibition of humanized yeast strain expressing human SCD1
# T1 construct: host or cells: S. cerevisiae ole1Δ strain (W303 pdr1Δ pdr3Δ background), plasmid pRS316 with TDH3 promoter and CYC1 terminator
# T1 sequence (O00767 1-359): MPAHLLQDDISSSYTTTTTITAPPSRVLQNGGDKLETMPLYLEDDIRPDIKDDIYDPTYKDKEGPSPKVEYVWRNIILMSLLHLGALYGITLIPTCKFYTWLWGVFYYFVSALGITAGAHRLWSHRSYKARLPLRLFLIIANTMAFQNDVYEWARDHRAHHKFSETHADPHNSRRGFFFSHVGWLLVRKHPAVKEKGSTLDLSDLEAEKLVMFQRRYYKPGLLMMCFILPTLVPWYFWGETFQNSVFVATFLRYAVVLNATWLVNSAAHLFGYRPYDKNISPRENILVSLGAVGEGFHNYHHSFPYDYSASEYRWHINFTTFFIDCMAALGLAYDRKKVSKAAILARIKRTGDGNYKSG
# In short: (§1)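 Yeast ole1Δ strain (W303 pdr1Δ pdr3Δ background) carrying plasmid-borne Ole1, SCD1 or SCD5 as sole desaturase was grown in uracil-lacking media, pre-cultured in raffinose for 6 h, then seeded in galactose medium with compound in DMSO. Growth was read as OD600 after 30° C. incubation: 24 h for Ole1, 40 h for SCD1/SCD5.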
# [2] = biological target: T2, SCD5 (Homo sapiens, UniProt Q86SK9); test: Growth inhibition of humanized yeast strain expressing SCD5 as sole desaturase; format: cell-based; settings: growth inhibition of humanized yeast strain expressing human SCD5
# T2 construct: host or cells: S. cerevisiae ole1Δ strain (W303 pdr1Δ pdr3Δ background), plasmid pRS316 with TDH3 promoter and CYC1 terminator
# T2 sequence (Q86SK9 1-330): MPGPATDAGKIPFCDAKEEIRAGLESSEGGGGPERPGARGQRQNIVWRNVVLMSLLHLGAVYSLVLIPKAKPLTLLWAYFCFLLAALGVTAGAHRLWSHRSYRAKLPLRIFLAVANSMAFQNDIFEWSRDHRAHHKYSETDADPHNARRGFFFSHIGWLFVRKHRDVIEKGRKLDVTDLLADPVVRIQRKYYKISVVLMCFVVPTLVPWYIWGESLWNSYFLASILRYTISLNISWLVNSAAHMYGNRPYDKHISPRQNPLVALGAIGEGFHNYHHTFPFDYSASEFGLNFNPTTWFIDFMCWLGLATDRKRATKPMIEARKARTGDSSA
# In short: as §1
SMILES,IC50 [1],IC50 [2]
CC(C)n1ncc2ccc(-c3noc([C@H]4CC[C@H](O)CC4)n3)cc21 [Compound 634],> 45 µM,≥ 45 µM
COC(=O)N1CCC(c2nc(-c3ccc4cnn(C5COC5)c4c3)no2)CC1 [Compound 635],> 45 µM,0.397 µM
COC(=O)N1CCN(c2nc(-c3ccc4cnn(C5COC5)c4c3)no2)CC1 [Compound 636],> 45 µM,1.8 µM
CC(C)n1ncc2ccc(-c3noc(N4CCC(CO)CC4)n3)cc21 [Compound 637],> 45 µM,> 45 µM
CC(=O)N1CC(CC(=O)N2CCC(c3nc(-c4ccc5c(C)nn(C)c5c4)no3)CC2)C1 [Compound 638],> 45 µM,> 45 µM
CC(C)c1noc2ccc(-c3noc(C4CCN(C(=O)OC(C)(C)C)CC4)n3)cc12 [Compound 639],> 45 µM,4.79 µM
CC(C1CC1)n1ncc2ccc(-c3noc(C4CCN(C(=O)OC(C)(C)C)CC4)n3)cc21 (stereo not shown) [Compound 640],> 45 µM,3.98 µM
CC(CCO)n1ncc2ccc(-c3noc(C4CCN(C(=O)OC(C)(C)C)CC4)n3)cc21 (stereo not shown) [Compound 641],> 45 µM,6.72 µM
O=C(OC1CC1)N1CCN(c2nc(-c3ccc4cnn(C5COC5)c4c3)no2)CC1 [Compound 642],> 45 µM,0.211 µM
CC(C)(C)OC(=O)N1CCC(c2noc(-c3ccc4cnn(C5COC5)c4c3)n2)CC1 [Compound 643],> 45 µM,0.01 µM
CNC(=O)Cn1ncc2ccc(-c3noc(C4CCN(C(=O)OC(C)(C)C)CC4)n3)cc21 [Compound 644],> 45 µM,> 45 µM
CC(C)(C)OC(=O)N1CCC(c2nc(-c3ccc4cnn(CC5CCNC5=O)c4c3)no2)CC1 (stereo not shown) [Compound 645],17.9 µM,4.47 µM
COC(=O)N1CCC(c2nc(-c3ccc4onc(C(C)C)c4c3)no2)CC1 [Compound 646],> 45 µM,1.18 µM
CNC(=O)O[C@H]1CC[C@@H](c2nc(-c3ccc4cnn(C(C)C)c4c3)no2)CC1 [Compound 647],> 45 µM,9.37 µM
Cc1nn(C)c2cc(-c3noc(C4CCN(C(=O)[C@@H]5CC(=O)N(c6cccc(C#N)c6)C5)CC4(F)F)n3)ccc12 (stereo partly shown) [Compound 648],> 45 µM,> 45 µM
CC(C)(C)OC(=O)N1CCC(c2nc(-c3ccc4oc(=O)n(C5COC5)c4c3)no2)CC1 [Compound 649],> 45 µM,0.259 µM
CC(C)(C)OC(=O)N1CCC(c2nc(-c3ccc4cnn(C5CCOC5)c4c3)no2)CC1 (stereo not shown) [Compound 650],4.36 µM,0.013 µM
CCOC(=O)CC(C)n1ncc2ccc(-c3noc(C4CCN(C(=O)OC(C)(C)C)CC4)n3)cc21 (stereo not shown) [Compound 651],> 45 µM,18.4 µM
CC(C)(C)OC(=O)N1CCC(c2nc(-c3ccc4cnn(C5CN(C(=O)OC(C)(C)C)C5)c4c3)no2)CC1 [Compound 652],> 45 µM,> 45 µM

SMILES,IC50 [1],IC50 [2]
C=Cc1nn(C(C)C)c2cc(-c3noc(C4CCN(C(=O)OC(C)(C)C)CC4)n3)ccc12 [Compound 653],> 45 µM,> 45 µM
CC(C)n1ncc2ccc(-c3noc([C@H]4CC[C@@H](O)CC4)n3)cc21 [Compound 654],> 45 µM,> 45 µM
CC(C)(C)OC(=O)N1CCC(c2nc(-c3ccc4cn(C5CCOC5)nc4c3)no2)CC1 (stereo not shown) [Compound 655],> 45 µM,> 45 µM
CC(C)(C)OC(=O)N1CCC(c2nc(-c3ccc4cn(C5CN(C(=O)OC(C)(C)C)C5)nc4c3)no2)CC1 [Compound 656],> 45 µM,> 45 µM
Cc1noc(N2CCN(c3nc(-c4ccc5cnn(C(C)C)c5c4)no3)CC2)n1 [Compound 657],> 45 µM,9.11 µM
CC(C)(C)OC(=O)N1CCC(c2nc(-c3cccc(C4CCOC4)c3)no2)CC1 (stereo not shown) [Compound 658],> 45 µM,0.089 µM
O=C(CC1CC1)N1CCN(c2nc(-c3ccc4cnn(C5COC5)c4c3)no2)CC1 [Compound 659],> 45 µM,4.2 µM
CC(C)n1ncc2ccc(-c3noc(C4CCN(C(=O)OC(C)(C)C)C=C4F)n3)cc21 (stereo not shown) [Compound 660],> 45 µM,14.6 µM
CC(C)(C)OC(=O)N1CCC(c2nc(-c3ccc4cnn(CC5COC5)c4c3)no2)CC1 [Compound 661],> 45 µM,1.54 µM
CC(C)(C)OC(=O)N1CCC(c2nc(-c3ccc4c(c3)N(C3COC3)C(=O)CC4)no2)CC1 [Compound 662],> 45 µM,> 45 µM
CC(C)(C)OC(=O)N1CCN(c2nc(-c3ccc4cnn(C5COC5)c4c3)no2)CC1 [Compound 664],23.5 µM,0.023 µM
Cc1nn(C)c2cc(-c3noc(C4CCN(C(=O)CN)CC4(F)F)n3)ccc12 (stereo not shown) [Compound 665],> 45 µM,5.01 µM
CC(C)n1ncc2ccc(-c3noc(C4CCN(C(=O)N5CCCC5C#N)CC4)n3)cc21 (stereo not shown) [Compound 666],> 45 µM,> 45 µM
CC(C)n1ncc2ccc(-c3noc(N4C[C@@H]5CN(C(=O)OC(C)(C)C)C[C@H]5C4)n3)cc21 [Compound 667],> 45 µM,0.87 µM
CCOC(=O)N1CCN(c2nc(-c3ccc4cnn(C(C)C)c4c3)no2)CC1 [Compound 668],> 45 µM,0.719 µM
Cc1nn(C)c2cc(-c3noc(C4CCN(c5nc6ccccc6o5)CC4)n3)ccc12 [Compound 669],> 45 µM,> 45 µM
CC(C)c1noc2ccc(-c3noc(C4CCN(C(=O)CC5(C)CC5)CC4)n3)cc12 [Compound 670],> 45 µM,3.79 µM
CC(C)n1ncc2ccc(N3CC4(CCN(C(=O)OC(C)(C)C)CC4)OC3=O)cc21 [Compound 671],> 45 µM,> 45 µM
CC(C)(C)OC(=O)N1CCC(c2nc(-c3cccc(OC4COC4)c3)no2)CC1 [Compound 672],> 45 µM,0.441 µM

SMILES,IC50 [1],IC50 [2]
CC(C)n1ncc2ccc(-c3noc(C4CCN(S(=O)(=O)C5CCCCC5)CC4)n3)cc21 [Compound 673],> 45 µM,33.8 µM
CC(C)(C)CC(=O)N1CCC(c2nc(-c3ccc4cn(C(=O)C5CC5)nc4c3)no2)CC1 [Compound 674],> 45 µM,> 45 µM
COC1CCC(S(=O)(=O)N2CCC(c3nc(-c4ccc5cnn(C(C)C)c5c4)no3)CC2)CC1 (stereo not shown) [Compound 675],> 45 µM,0.01 µM
COC(=O)N1CCC(c2noc(-c3ccc4cnn(C5COC5)c4c3)n2)CC1 [Compound 676],> 45 µM,0.013 µM
Cc1nn(C)c2cc(-c3noc(C4CCN(C(=O)CCC(F)(F)F)CC4)n3)ccc12 [Compound 677],> 45 µM,> 45 µM
CNC(=O)Cn1cc2ccc(-c3noc(C4CCN(C(=O)OC(C)(C)C)CC4)n3)cc2n1 [Compound 678],> 45 µM,3.87 µM
CC(C)n1ncc2ccc(-c3noc(C4CCN(C(=O)CNC(=O)c5ccccc5)CC4(F)F)n3)cc21 (stereo not shown) [Compound 679],> 45 µM,> 45 µM
Cc1nn(C)c2cc(-c3noc(C4CCN(C(=O)CC5CNC5)CC4)n3)ccc12 [Compound 680],> 45 µM,> 45 µM
CC(C)n1ncc2ccc(-c3noc(C4CCN(C(=O)CNC(=O)c5ccc(F)cc5)CC4(F)F)n3)cc21 (stereo not shown) [Compound 681],> 45 µM,> 45 µM
CC(C)n1ncc2ccc(-c3nc(N4CCN(C(=O)OC5(C)CC5)CC4)no3)cc21 [Compound 682],> 45 µM,0.01 µM
CC(C)(C)OC(=O)N[C@H]1CC[C@@H](c2nc(-c3ccc4cnn(C5COC5)c4c3)no2)CC1 [Compound 683],> 45 µM,10.1 µM
CC(C)n1ncc2ccc(-c3noc(C4CCN(C(=O)N5CCC5(C)C)CC4)n3)cc21 [Compound 684],> 45 µM,> 45 µM
O=C(c1ccccc1)N1CCC(c2noc(-c3ccc4cnn(C5COC5)c4c3)n2)CC1 [Compound 685],> 45 µM,0.184 µM
CC(C)n1ncc2ccc(-c3noc(C4CCN(C(=O)CN(C)C)CC4)n3)cc21 [Compound 686],> 45 µM,> 45 µM
CC(C)n1ncc2ccc(-c3noc(C4CCN(C(=O)N5CCCC5(C)CO)CC4)n3)cc21 (stereo not shown) [Compound 687],> 45 µM,> 45 µM
CC(C)n1ncc2ccc(-c3noc(C4CCN(C(=O)C5(C#N)CC5)CC4)n3)cc21 [Compound 688],> 45 µM,1.5 µM
CC(C)n1ncc2ccc(-c3noc(N4CCN(C(=O)OC5CC5)CC4)n3)cc21 [Compound 689],> 45 µM,0.657 µM
CC(C)(C)OC(=O)N1CCC(c2nc(-c3ccc4cnn(C5CS(=O)(=O)C5)c4c3)no2)CC1 [Compound 690],> 45 µM,0.131 µM

# Reference: patent US11873298B2, “Compounds and uses thereof” (JANSSEN PHARMACEUTICA NV, priority 2017, dated 2024)
